SMILES strings stand for the structures. pEC50: −log10 of the molar value. Records with an inconclusive call do not appear. The source made the active and inactive calls. How the calls were made is not given here.

The subject of the experiment is BJ-TERT fibroblast viability, ATP luminescence. The experiment in a line: BJ-TERT fibroblast viability loss – cell-based, RAS-independent, luminescence, dose response (AID 1933).

Usually EC50 stands for the concentration that produces a half-maximal response. Regarding `CCSc1nc2ccccc2n1C(=O)/C=C/c1ccc(OC)c(OC)c1`, the EC50 was > 15 µM (inactive).

Broadly, the pEC50 is the EC50 on a negative log10 scale, so that one unit is a factor of ten. As for `COc1cc2c(c(OC)c1OC)-c1ccc(O)c(=O)cc1C(NC(C)=O)CC2` (configuration not stated), the pEC50 was above 6.92.

Source of the values: PubChem BioAssay AID1933 (Broad Institute, 2009).
